Results on 25 molecules are retold here after US9890147B2 (BAYER PHARMA AKTIENGESELLSCHAFT, priority 2012, dated 2018).

The structures appear in SMILES notation.

One experiment concerns MOLM-13 cells. As to the kind of experiment: Cell proliferation assay (alamarBlue), MOLM-13. Type of experiment: cell-based. Particulars: Homo sapiens, 96 hours incubation, inhibition of cell proliferation. Summed up: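 Cells in RPMI1640/10% FCS read by alamarBlue fluorescence (ex 530, em 590 nm) after overnight 37 °C incubation, then treated at 1E-5 to 1E-8 M for 96 h. Pre-treatment values subtracted from endpoint values and compared with buffer-only wells; IC50 is 50% proliferation inhibition.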

The next experiment has as its target T1, BRD4 (BD1) (Homo sapiens, UniProt O60885).
T1 construct: with relatively long constructs also being possible, preferably amino acids 44-168; made in house; host or cells: E. coli
As to the kind of experiment: Binding assay BRD4/acetylated peptide H4 (TR-FRET protein-protein interaction assay). Put shortly:
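His6-BRD4 BD1 (aa 67-152, E. coli), usually 10 nM, with biotinylated tetra-acetylated H4 peptide in HEPES pH 7.5 buffer; 11 compound concentrations 0.1 nM–20 μM in duplicate, 10 min preincubation, 1 h at 22 °C then ≥3 h at 4 °C. TR-FRET 665/620 ratio; IC50 by 4-parameter fit.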

What is called IC50 is the concentration at which inhibition is half-maximal. Take `CNC(=O)N1N=C(c2ccc(-c3ccc(F)c(C#N)c3)cc2)c2cc(OC)c(OC)cc2CC1C` (racemic) [Example 75, (±)-1-(3′-cyano-4′-fluorobiphenyl-4-yl)-7,8-dimethoxy-N,4-dimethyl-4,5-dihydro-3H-2,3-benzodiazepine-3-carboxamide]: the IC50 is 660 nM with MOLM-13 cells and 130 nM on BRD4 (BD1).
In the case of `CNC(=O)N1N=C(c2ccc(-c3cccnc3OC)cc2)c2cc(OC)c(OC)cc2CC1C` (racemic) [Example 76, (±)-7,8-dimethoxy-1-[4-(2-methoxypyridin-3-yl)phenyl]-N,4-dimethyl-4,5-dihydro-3H-2,3-benzodiazepine-3-carboxamide], the half-inhibitory concentration (IC50) in the experiment on MOLM-13 cells was found to be 750 nM; on BRD4 (BD1), 50 nM.
Turning to `CNC(=O)N1N=C(c2ccc(-c3cccc(C(N)=O)c3)cc2)c2cc(OC)c(OC)cc2CC1C` (racemic) [Example 77, (±)-1-(3′-carbamoylbiphenyl-4-yl)-7,8-dimethoxy-N,4-dimethyl-4,5-dihydro-3H-2,3-benzodiazepine-3-carboxamide], the IC50 in the experiment on MOLM-13 cells was 490 nM; on BRD4 (BD1), 40 nM.
With `CNC(=O)N1N=C(c2ccc(-c3ccc(C(=O)N4CCCC4)cc3)cc2)c2cc(OC)c(OC)cc2CC1C` (racemic) [Example 78, (±)-7,8-dimethoxy-N,4-dimethyl-1-[4′-(pyrrolidin-1-ylcarbonyl)biphenyl-4-yl]-4,5-dihydro-3H-2,3-benzodiazepine-3-carboxamide], the values for the IC50 with MOLM-13 cells and on BRD4 (BD1) were 370 nM and 40 nM, respectively.
For the molecule `CNC(=O)N1N=C(c2ccc(-c3ccc(C(=O)N4CCOCC4)cc3)cc2)c2cc(OC)c(OC)cc2CC1C` (racemic) [Example 79, (±)-7,8-dimethoxy-N,4-dimethyl-1-[4′-(morpholin-4-ylcarbonyl)biphenyl-4-yl]-4,5-dihydro-3H-2,3-benzodiazepine-3-carboxamide], the IC50 with MOLM-13 cells is 460 nM; on BRD4 (BD1), 50 nM.
Regarding `CNC(=O)N1N=C(c2ccc(-c3cncc(OC)c3)cc2)c2cc(OC)c(OC)cc2CC1C` (racemic) [Example 80, (±)-7,8-dimethoxy-1-[4-(5-methoxypyridin-3-yl)phenyl]-N,4-dimethyl-4,5-dihydro-3H-2,3-benzodiazepine-3-carboxamide], the IC50 in the experiment on MOLM-13 cells came out at 560 nM; on BRD4 (BD1), 50 nM.
For the molecule `CNC(=O)N1N=C(c2ccc(-c3cncc(C)c3)cc2)c2cc(OC)c(OC)cc2CC1C` (racemic) [Example 81, (±)-7,8-dimethoxy-N,4-dimethyl-1-[4-(5-methylpyridin-3-yl)phenyl]-4,5-dihydro-3H-2,3-benzodiazepine-3-carboxamide], the values for the IC50 in the experiment on MOLM-13 cells and on BRD4 (BD1) were 300 nM and 50 nM, respectively.
Consider `CNC(=O)N1N=C(c2ccc(-c3cnccc3C)cc2)c2cc(OC)c(OC)cc2CC1C` (racemic) [Example 82, (±)-7,8-dimethoxy-N,4-dimethyl-1-[4-(4-methylpyridin-3-yl)phenyl]-4,5-dihydro-3H-2,3-benzodiazepine-3-carboxamide], for which the results for the IC50 in the experiment on MOLM-13 cells and on BRD4 (BD1) were 550 nM and 80 nM, respectively.
Consider `CNC(=O)N1N=C(c2ccc(-c3ccc(C(=O)NC4CC4)cc3)cc2)c2cc(OC)c(OC)cc2CC1C` (racemic) [Example 83, (±)-1-[4′-(cyclopropylcarbamoyl)biphenyl-4-yl]-7,8-dimethoxy-N,4-dimethyl-4,5-dihydro-3H-2,3-benzodiazepine-3-carboxamide], for which the IC50 with MOLM-13 cells was found to be 450 nM; on BRD4 (BD1), 30 nM.
On the same counts, the results for `CNC(=O)N1N=C(c2ccc(-c3ccncc3F)cc2)c2cc(OC)c(OC)cc2CC1C` (racemic) [Example 84, (±)-1-[4-(3-fluoropyridin-4-yl)phenyl]-7,8-dimethoxy-N,4-dimethyl-4,5-dihydro-3H-2,3-benzodiazepine-3-carboxamide] are 340 nM and 60 nM.
With `CNC(=O)N1N=C(c2ccc(-c3cccc(C(F)(F)F)c3)cc2)c2cc(OC)c(OC)cc2CC1C` (racemic) [Example 85, (±)-7,8-dimethoxy-N,4-dimethyl-1-[3′-(trifluoromethyl)biphenyl-4-yl]-4,5-dihydro-3H-2,3-benzodiazepine-3-carboxamide], the results for the IC50 in the experiment on MOLM-13 cells and at BRD4 (BD1) were 1080 nM and 290 nM, respectively.
As to `CNC(=O)N1N=C(c2ccc(-c3ccc(C(F)(F)F)cc3)cc2)c2cc(OC)c(OC)cc2CC1C` (racemic) [Example 86, (±)-7,8-dimethoxy-N,4-dimethyl-1-[4′-(trifluoromethyl)biphenyl-4-yl]-4,5-dihydro-3H-2,3-benzodiazepine-3-carboxamide], the IC50 with MOLM-13 cells was determined as 1430 nM; at BRD4 (BD1) it was 390 nM.
Consider `CNC(=O)N1N=C(c2ccc(-c3cccc(OC)c3)cc2)c2cc(OC)c(OC)cc2CC1C` (racemic) [Example 87, (±)-7,8-dimethoxy-1-(3′-methoxybiphenyl-4-yl)-N,4-dimethyl-4,5-dihydro-3H-2,3-benzodiazepine-3-carboxamide], for which the IC50 came out at 560 nM in the experiment on MOLM-13 cells and 110 nM on BRD4 (BD1).
As to `CNC(=O)N1N=C(c2ccc(-c3ccc(-c4ccc(Cl)s4)cc3)cc2)c2cc(OC)c(OC)cc2CC1C` (racemic) [Example 88, (±)-1-[4′-(5-chlorothien-2-yl)biphenyl-4-yl]-7,8-dimethoxy-N,4-dimethyl-4,5-dihydro-3H-2,3-benzodiazepine-3-carboxamide], the results for the IC50 in the experiment on MOLM-13 cells and on BRD4 (BD1) were 670 nM and 290 nM, respectively.
As to `CNC(=O)N1N=C(c2ccc(-c3cccc(F)c3)cc2)c2cc(OC)c(OC)cc2CC1C` (racemic) [Example 89, (±)-1-(3′-fluorobiphenyl-4-yl)-7,8-dimethoxy-N,4-dimethyl-4,5-dihydro-3H-2,3-benzodiazepine-3-carboxamide], the IC50 in the experiment on MOLM-13 cells is 380 nM; at BRD4 (BD1), 140 nM.
For `CNC(=O)N1N=C(c2ccc(-c3ccccc3OC)cc2)c2cc(OC)c(OC)cc2CC1C` (racemic) [Example 90, (±)-7,8-dimethoxy-1-(2′-methoxybiphenyl-4-yl)-N,4-40dimethyl-4,5-dihydro-3H-2,3-benzodiazepine-3-carboxamide] the same measures were 460 nM and 70 nM.
As to `CNC(=O)N1N=C(c2ccc(-c3ccccc3C(F)(F)F)cc2)c2cc(OC)c(OC)cc2CC1C` (racemic) [Example 91, (±)-7,8-dimethoxy-N,4-dimethyl-1-[2′-(trifluoromethyl)biphenyl-4-yl]-4,5-dihydro-3H-2,3-benzodiazepine-3-carboxamide], the IC50 is 550 nM in the experiment with MOLM-13 cells and 340 nM on BRD4 (BD1).
`CNC(=O)N1N=C(c2ccc(-c3ccccc3Cl)cc2)c2cc(OC)c(OC)cc2CC1C` (racemic) [Example 92, (±)-1-(2′-chlorobiphenyl-4-yl)-7,8-dimethoxy-N,4-dimethyl-4,5-dihydro-3H-2,3-benzodiazepine-3-carboxamide]: the results for the IC50 in the experiment on MOLM-13 cells and at BRD4 (BD1) were 850 nM and 180 nM, respectively.
Regarding `CNC(=O)N1N=C(c2ccc(-c3ccccc3F)cc2)c2cc(OC)c(OC)cc2CC1C` (racemic) [Example 93, (±)-1-(2′-fluorobiphenyl-4-yl)-7,8-dimethoxy-N,4-dimethyl-4,5-dihydro-3H-2,3-benzodiazepine-3-carboxamide], the values for the half-maximal inhibitory concentration (IC50) in the experiment on MOLM-13 cells and on BRD4 (BD1) were 460 nM and 120 nM, respectively.
As for `CNC(=O)N1N=C(c2ccc(-c3ccc(CO)cc3)cc2)c2cc(OC)c(OC)cc2CC1C` (racemic) [Example 94, (±)-1-[4′-(hydroxymethyl)biphenyl-4-yl]-7,8-dimethoxy-N,4-dimethyl-4,5-dihydro-3H-2,3-benzodiazepine-3-carboxamide], the IC50 is 380 nM in the experiment with MOLM-13 cells and 40 nM on BRD4 (BD1).
Take `CNC(=O)N1N=C(c2ccc(-c3ccc(OC(F)(F)F)cc3)cc2)c2cc(OC)c(OC)cc2CC1C` (racemic) [Example 95, (±)-7,8-dimethoxy-N,4-dimethyl-1-[4′-(trifluoromethoxy)biphenyl-4-yl]-4,5-dihydro-3H-2,3-benzodiazepine-3-carboxamide]: the IC50 in the experiment on MOLM-13 cells came to 2760 nM; on BRD4 (BD1) it was 630 nM.
`CNC(=O)N1N=C(c2ccc(-c3cccc(C(=O)N4CCCCC4)c3)cc2)c2cc(OC)c(OC)cc2CC1C` (racemic) [Example 97, (±)-7,8-dimethoxy-N,4-dimethyl-1-[3′-(piperidin-1-ylcarbonyl)biphenyl-4-yl]-4,5-dihydro-3H-2,3-benzodiazepine-3-carboxamide]: the half-inhibitory concentration (IC50) with MOLM-13 cells is 450 nM; at BRD4 (BD1), 50 nM.
On to `CNC(=O)N1N=C(c2ccc(-c3cccc(C(=O)N4CCOCC4)c3)cc2)c2cc(OC)c(OC)cc2CC1C` (racemic) [Example 98, (±)-7,8-dimethoxy-N,4-dimethyl-1-[3′-(morpholin-4-ylcarbonyl)biphenyl-4-yl]-4,5-dihydro-3H-2,3-benzodiazepine-3-carboxamide], for which the half-inhibitory concentration (IC50) came out at 270 nM in the experiment on MOLM-13 cells and 30 nM at BRD4 (BD1).
Take `CNC(=O)N1N=C(c2ccc(-c3cccc(C(=O)NC4CC4)c3)cc2)c2cc(OC)c(OC)cc2CC1C` (racemic) [Example 99, (±)-1-[3′-(cyclopropylcarbamoyl)-biphenyl-4-yl]-7,8-dimethoxy-N,4-dimethyl-4,5-dihydro-3H-2,3-benzodiazepine-3-carboxamide]: the IC50 in the experiment with MOLM-13 cells amounted to 270 nM; on BRD4 (BD1) it was 30 nM.
Turning to `CNC(=O)N1N=C(c2ccc(-c3ccnn3C)cc2)c2cc(OC)c(OC)cc2CC1C` (racemic) [Example 101, (±)-7,8-dimethoxy-N,4-dimethyl-1-[4-(1-methyl-1H-pyrazol-5-yl)phenyl]-4,5-dihydro-3H-2,3-benzodiazepine-3-carboxamide], the IC50 in the experiment with MOLM-13 cells was found to be 650 nM; at BRD4 (BD1) it was 60 nM.
